The values below come from article PMC12199272, “Biochemical dissection of a fungal highly reducing polyketide synthase condensing region reveals basis for acyl group selection” (Chemical Science, 2025).

For the first assay, the target named is T1, SimG AT domain (LD-AT) (Tolypocladium inflatum, UniProt Z9QNP6F7M4).
T1 construct: excised AT domain with flanking linker domain (LD), active-site Ser706; recombinant; borders only in ESI
T1 sequence (Z9QNP6F7M4 1-440): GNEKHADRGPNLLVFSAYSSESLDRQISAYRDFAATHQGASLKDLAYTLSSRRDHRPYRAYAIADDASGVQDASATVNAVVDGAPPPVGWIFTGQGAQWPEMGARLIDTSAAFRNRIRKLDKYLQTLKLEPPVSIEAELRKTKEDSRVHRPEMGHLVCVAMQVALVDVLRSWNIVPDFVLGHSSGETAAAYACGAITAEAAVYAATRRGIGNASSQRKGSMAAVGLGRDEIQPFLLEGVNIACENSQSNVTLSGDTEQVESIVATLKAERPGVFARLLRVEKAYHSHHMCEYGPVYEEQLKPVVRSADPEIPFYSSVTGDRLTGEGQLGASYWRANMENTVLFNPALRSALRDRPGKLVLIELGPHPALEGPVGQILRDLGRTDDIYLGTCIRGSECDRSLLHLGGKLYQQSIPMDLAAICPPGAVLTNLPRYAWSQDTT
The experiment in a line: intact protein MS, acyl-enzyme formation. Type of assay: biochemical. To be noted: covalent; active site Ser706; excess acyl-CoA; no ACP.
For the compound `CC(=O)SCCNC(=O)CCNC(=O)[C@H](O)C(C)(C)COP(=O)(O)OP(=O)(O)OC[C@H]1O[C@@H](n2cnc3c(N)ncnc32)[C@H](O)[C@@H]1OP(=O)(O)O` [acetyl-CoA], the “% loading of AT domain” value worked out at 35.3 ± 0.9%. Same read-out and setting: next, `CC(C)(COP(=O)(O)OP(=O)(O)OC[C@H]1O[C@@H](n2cnc3c(N)ncnc32)[C@H](O)[C@@H]1OP(=O)(O)O)[C@@H](O)C(=O)NCCC(=O)NCCSC(=O)CC(=O)O` [malonyl-CoA]: 64.5 ± 1.4%.

Another assay deals with T1, SimG AT domain (LD-AT). The experiment in a line: intact protein MS, acyl-enzyme formation. To be noted: covalent; active site Ser706. Type of assay: biochemical.
As for `CCCCCCCC(=O)SCCNC(=O)CCNC(=O)[C@H](O)C(C)(C)COP(=O)(O)OP(=O)(O)OC[C@H]1O[C@@H](n2cnc3c(N)ncnc32)[C@H](O)[C@@H]1OP(=O)(O)O` [octanoyl-CoA], the “% acylation of AT domain” value was “good levels of AT transacylation were observed for C3–C10 substrates”.

Regarding `CCCC(=O)SCCNC(=O)CCNC(=O)[C@H](O)C(C)(C)COP(=O)(O)OP(=O)(O)OC[C@H]1O[C@@H](n2cnc3c(N)ncnc32)[C@H](O)[C@@H]1OP(=O)(O)O` [butyryl-CoA], the “% acylation of AT domain” value is on record as “good levels of AT transacylation were observed for C3–C10 substrates”.

On to `CCCCCCCCCC(=O)SCCNC(=O)CCNC(=O)[C@H](O)C(C)(C)COP(=O)(O)OP(=O)(O)OC[C@H]1O[C@@H](n2cnc3c(N)ncnc32)[C@H](O)[C@@H]1OP(=O)(O)O` [decanoyl-CoA], for which the “% acylation of AT domain” value is listed as “good levels of AT transacylation were observed for C3–C10 substrates”. Still for that read-out and setting: with `CCCCCC(=O)SCCNC(=O)CCNC(=O)[C@H](O)C(C)(C)COP(=O)(O)OP(=O)(O)OC[C@H]1O[C@@H](n2cnc3c(N)ncnc32)[C@H](O)[C@@H]1OP(=O)(O)O` [hexanoyl-CoA] the entry was “good levels of AT transacylation were observed for C3–C10 substrates”; with `CCC(=O)SCCNC(=O)CCNC(=O)[C@H](O)C(C)(C)COP(=O)(O)OP(=O)(O)OC[C@H]1O[C@@H](n2cnc3c(N)ncnc32)[C@H](O)[C@@H]1OP(=O)(O)O` [propionyl-CoA], “good levels of AT transacylation were observed for C3–C10 substrates”.

Regarding `CC(C(=O)O)C(=O)SCCNC(=O)CCNC(=O)[C@H](O)C(C)(C)COP(=O)(O)OP(=O)(O)OC[C@H]1O[C@@H](n2cnc3c(N)ncnc32)[C@H](O)[C@@H]1OP(=O)(O)O` (some centres unmarked) [methylmalonyl-CoA], the “% acylation of AT domain” value is on record as “methylmalonyl-CoA was able to acylate the AT domain”.
